In this experiment the target is T1, human D3 dopamine receptor (Homo sapiens, UniProt P35462).
T1 construct: expressed in transfected cells; host or cells: HEK-293 EBNA cells, transient transfection; membrane preparation
T1 sequence (P35462 whole entry): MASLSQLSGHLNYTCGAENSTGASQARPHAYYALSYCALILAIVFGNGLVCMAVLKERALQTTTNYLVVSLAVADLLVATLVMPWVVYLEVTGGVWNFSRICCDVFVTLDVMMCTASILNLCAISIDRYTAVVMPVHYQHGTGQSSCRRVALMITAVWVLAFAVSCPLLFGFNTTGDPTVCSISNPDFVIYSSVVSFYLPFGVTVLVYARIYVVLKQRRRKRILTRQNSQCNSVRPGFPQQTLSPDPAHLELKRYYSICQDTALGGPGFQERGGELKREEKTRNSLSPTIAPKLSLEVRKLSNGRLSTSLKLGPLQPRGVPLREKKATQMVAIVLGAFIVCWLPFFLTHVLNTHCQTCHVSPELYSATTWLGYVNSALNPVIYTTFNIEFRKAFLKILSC
In words: radioligand binding ([3H]-spiperone) to cloned human D3 receptors expressed in HEK-293 EBNA cells. Conditions: [3H]-spiperone approx. 0.5 nM, HEK-293 EBNA membranes, 1 h at RT; Ki by Cheng-Prusoff. As for the experimental part:
The cells were harvested 48 h post-transfection, washed three times with cold PBS and stored at −80° C. prior to use. The pellet was suspended in cold 50 mM Tris-HCl buffer containing 10 mM EDTA (pH 7.4) and homogenized with a Polytron (Kinematica AG, Basel, Switzerland) for 20-30 sec at 12.000 rpm. After centrifugation at 48.000×g for 30 min at 4° C., the pellet was resuspended in cold 10 mM Tris-HCl buffer containing 0.1 mM EDTA (pH 7.4), homogenized, and centrifuged as above. This pellet was further resuspended in a smaller volume of ice cold 10 mM Tris-HCl buffer containing 0.1 mM EDTA (pH 7.4) and homogenized with a Polytron for 20-30 sec at 12.000 rpm. The protein content of this homogenate was determined with the Bio-Rad (Bradford) Protein Assay (Biorad Laboratories GmbH, München, Germany) according to the instructions of the manufacturer using gamma globulin as the standard. This homogenate was stored at −80° C. in aliquots and thawed immediately prior to use.
Aliquots of membrane preparations were thawed at RT, resuspended in assay buffer (50 mM Tris-HCl, 120 mM NaCl, 5 mM MgCl2, 1 mM EDTA, 5 mM KCl, 1.5 mM CaCl2, pH=7.4), homogenized with a Polytron for 20-30 sec at 12.000 rpm and adjusted to a final concentration of approximately 7.5 μg protein/well.
The binding affinity (Ki) of the compounds was determined using radioligand binding. Membranes were incubated in a total volume of 200 μl with a fixed concentration of radioligand (final concentration approximately 0.5 nM [^3H]-spiperone) and ten concentrations of test compound in ranging between 10 μM-0.1 nM for 1 h at RT. […] The nonspecific binding was determined with equally composed reaction mixtures in the presence of 10 μM unlabelled spiperone. Per well 45 μl of Microscint 40 (Perkin Elmer, Schwerzenbach, Switzerland) was added, plates for sealed, shaken for 20 min and counted for 3 min on a Topcount Microplate Scintillation Counter (Canberra Packard SA, Zürich, Switzerland) with quenching correction.
The CPM value for each duplicate of a concentration of competing compound was averaged (y1), then the % specific binding was calculated according to the equation (((y1−non-specific)/(total binding−non-specific))×100). Graphs were plotted with the % specific binding using XLfit, a curve fitting program that iteratively plots the data using Levenburg Marquardt algorithm. The single site competition analysis equation used was y=A+((B−A)/(1+((x/C)^D))), where y is the % specific binding, A is the minimum y, B is the maximum y, C is the IC50, x is the log10 of the concentration of the competing compound and D is the slope of the curve (the Hill Coefficient). […] The affinity constant (Ki) was calculated using the Cheng-Prusoff equation Ki=(IC50/1+([L]/Kd), where [L] is the concentration of radioligand and Kd is the dissociation constant of the radioligand at the receptor as determined by the saturation isotherm.
Take `CC(=O)N[C@H]1CC[C@H](CCN2CCN(c3noc4ccncc34)CC2)CC1` [Example 1, N-{trans-4-[2-(4-Isoxazolo[4,5-c]pyridin-3-yl-piperazin-1-yl)-ethyl]-cyclohexyl}-acetamide]: the Ki (usually a dissociation constant, usually derived from enzyme kinetics or from competition with a known ligand) is 40.4 nM.

`COCCC(=O)N[C@H]1CC[C@H](CCN2CCN(c3noc4ccncc34)CC2)CC1` [Example 2, N-{trans-4-[2-(4-Isoxazolo[4,5-c]pyridin-3-yl-piperazin-1-yl)-ethyl]-cyclohexyl}-3-methoxy-propionamide]: the Ki stood at 24.3 nM. The figure for `CCC(=O)N[C@H]1CC[C@H](CCN2CCN(c3noc4ccncc34)CC2)CC1` [Example 3, N-{trans-4-[2-(4-Isoxazolo[4,5-c]pyridin-3-yl-piperazin-1-yl)-ethyl]-cyclohexyl}-propionamide] is 12.4 nM; for `O=C(CC1CC1)N[C@H]1CC[C@H](CCN2CCN(c3noc4ccncc34)CC2)CC1` [Example 4, 2-Cyclopropyl-N-{trans-4-[2-(4-isoxazolo[4,5-c]pyridin-3-yl-piperazin-1-yl)-ethyl]-cyclohexyl}-acetamide] it is 15.4 nM. Turning to `O=C(CF)N[C@H]1CC[C@H](CCN2CCN(c3noc4ccncc34)CC2)CC1` [Example 5, 2-Fluoro-N-{trans-4-[2-(4-isoxazolo[4,5-c]pyridin-3-yl-piperazin-1-yl)-ethyl]-cyclohexyl}-acetamide], the Ki turned out to be 43 nM. Regarding `O=C(N[C@H]1CC[C@H](CCN2CCN(c3noc4ccncc34)CC2)CC1)c1ccc(F)cc1` [Example 6, 4-Fluoro-N-{trans-4-[2-(4-isoxazolo[4,5-c]pyridin-3-yl-piperazin-1-yl)-ethyl]-cyclohexyl}-benzamide], the Ki worked out at 97 nM. The figure for `O=C(N[C@H]1CC[C@H](CCN2CCN(c3noc4ccncc34)CC2)CC1)c1ccc(F)nc1` [Example 7, 6-Fluoro-N-{trans-4-[2-(4-isoxazolo[4,5-c]pyridin-3-yl-piperazin-1-yl)-ethyl]-cyclohexyl}-nicotinamide] is 63 nM.

(Values after patent US7825123B2, “Isoxazolo[4,5]pyridin-3-yl-piperazin derivatives useful as modulators of dopamine D3 receptors” (Hoffmann-La Roche Inc., priority 2008, dated 2010).)
